Measurements taken from patent publication US10143771B2, “Antioxidant and antimicrobial wound dressing materials” (KCI USA, Inc., priority 2003, dated 2018).

Columns and labels:
[1] = system: Pseudomonas aeruginosa (ATCC 27853 and various PSI strains); assay: Zone of inhibition test, Procedure 2; format: cell-based; conditions: Pseudomonas aeruginosa on DSA plates, 37° C., over the test period (every 24 hours for 72 hours)
Protocol: (§1) Six 2 cm×2 cm squares of each sample are cut out in sterile conditions. On day one of the experiment, cultures of both Pseudomonas aeruginosa (ATCC 27853 and various PSI strains) and Staphylococcus aureus (provided by the Dept of Clinical Microbiology and Pathology) are incubated aerobically at 37° C. for 24 hours on Diagnostic Sensitivity Agar (DSA). After 24 hours test samples are each placed on a DSA plate and immediately wetted with 0.5 mls of a buffer solution. Three squares of sample are placed on plates inoculated with Pseudomonas aeruginosa and three are placed on plates inoculated with Staphylococcus aureus. The plates are then incubated at 37° C. for 24 hours. The zone of inhibited growth around the sample is then measured using calipers, and the test sample is placed on a new inoculated DSA plate. A swab test is carried out on the area beneath the sample to determine if the sample is bacteriostatic if not bactericidal by smearing the swab on a DSA plate and incubating it for 24 hours and then examining the growth.

Staphylococcus aureus = assay: Zone of inhibition test, Procedure 2; format: cell-based; conditions: Staphylococcus aureus on DSA plates, 37° C., over the test period (every 24 hours for 72 hours)
Protocol: as §1

## O=[N+]([O-])[O-].[Ag+] [silver nitrate solution (0.5%), silver nitrate]
[1]
  zone of inhibition: zones of inhibition were observed
Staphylococcus aureus
  zone of inhibition: zones of inhibition were observed
